Source: ChEMBL document CHEMBL3045715, “Fungicidal Properties of N-(3, 5-Dichlorophenyl)-N-methoxyformamidine and Computer Studies of Its Active Structures” (J Pestic Sci, 1991)
Activity calls are given as the source filed them. No cut-off for these calls is given here.

Legend:
Botrytis cinerea [1] = test: Antifungal activity against Botryotinia fuckeliana Bc-44 in kidney bean leaves assessed as reduction of disease diameter lesions at 200 ppm after 4 days; format: functional; design: scale not given: the % may be the effect or the level left
Botrytis cinerea [2] = test: Antifungal activity against Botryotinia fuckeliana Bc-44 in kidney bean leaves assessed as reduction of disease diameter lesions at 50 ppm after 4 days; format: functional; design: scale not given: the % may be the effect or the level left
Botrytis cinerea [3] = test: Antifungal activity against benzimidazole-resistant Botryotinia fuckeliana Bc-44 assessed as distorted and swollen germ tube at 15 ug/ml after 48 hr; format: functional, organism-based
Botrytis cinerea [4] = test: Antifungal activity against benzimidazole-resistant Botryotinia fuckeliana Bc-44 assessed as inhibition of conidia germination at 15 ug/ml after 48 hr; format: functional, organism-based
Botrytis cinerea [5] = test: Antifungal activity against benzimidazole-sensitive Botryotinia fuckeliana Bc-9 assessed as distorted and swollen germ tube at 15 ug/ml after 48 hr; format: functional, organism-based
Botrytis cinerea [6] = test: Antifungal activity against benzimidazole-resistant Botryotinia fuckeliana Bc-44 assessed as inhibition of radial mycelial growth after 48 hr; format: functional, organism-based
Botrytis cinerea [7] = test: Antifungal activity against benzimidazole-sensitive Botryotinia fuckeliana Bc-9 assessed as inhibition of hyphae extension at 15 ug/ml after 48 hr; format: functional, organism-based
Botrytis cinerea [8] = test: Antifungal activity against benzimidazole-resistant Botryotinia fuckeliana Bc-44 assessed as inhibition of hyphae extension at 15 ug/ml after 48 hr; format: functional, organism-based
Botrytis cinerea [9] = test: Resistant ratio of EC50 for benzimidazole-sensitive Botryotinia fuckeliana Bc-9 to EC50 for benzimidazole-resistant Botryotinia fuckeliana Bc-44; format: functional
Botrytis cinerea [10] = test: Antifungal activity against benzimidazole-sensitive Botryotinia fuckeliana Bc-9 assessed as inhibition of radial mycelial growth after 48 hr; format: functional, organism-based
Botrytis cinerea [11] = test: Antifungal activity against benzimidazole-sensitive Botryotinia fuckeliana Bc-9 assessed as distorted and swollen germ tube at 1 ug/ml after 48 hr; format: functional, organism-based
Botrytis cinerea [12] = test: Antifungal activity against benzimidazole-sensitive Botryotinia fuckeliana Bc-9 assessed as inhibition of hyphae extension at 1 ug/ml after 48 hr; format: functional, organism-based

SMILES | Activity (Botrytis cinerea [1]) [%] | Activity (Botrytis cinerea [2]) [%] | further results
N#CNc1cc(Cl)cc(Cl)c1 | <25 | <25 | 
CO/N=C/Nc1cc(Cl)cc(Cl)c1 | 100 | 90 | inhibition (Botrytis cinerea [3]): Active; Activity (Botrytis cinerea [4]): inactive; inhibition (Botrytis cinerea [5]): inactive; EC50 (Botrytis cinerea [6]): 3 ppm; inhibition (Botrytis cinerea [7]): inactive; inhibition (Botrytis cinerea [8]): Active; Ratio EC50 (Botrytis cinerea [9]): 10; EC50 (Botrytis cinerea [10]): 30 ppm
CCO/N=C/Nc1cc(Cl)cc(Cl)c1 | 100 | 90 | 
CCONC(=S)Nc1cc(Cl)cc(Cl)c1 | <25 | <25 | 
CCO/N=C(\C)Nc1cc(Cl)cc(Cl)c1 | 100 | 50 | 
CNC(=O)Oc1nc2ccccc2[nH]1 |  |  | EC50 (Botrytis cinerea [6]): > 100 ppm; Ratio EC50 (Botrytis cinerea [9]): 0.0005; EC50 (Botrytis cinerea [10]): 0.05 ppm
CN(C#N)c1cc(Cl)cc(Cl)c1 | 90 | 26 | 
CCONC(=O)Nc1cc(Cl)cc(Cl)c1 | <25 | <25 | 
CCO/N=C(/Nc1cc(Cl)cc(Cl)c1)SC | 26 | <25 | 
COC(=O)Nc1cc(Cl)cc(Cl)c1 | 100 | 90 | inhibition (Botrytis cinerea [11]): inactive; EC50 (Botrytis cinerea [6]): 0.2 ppm; Ratio EC50 (Botrytis cinerea [9]): 25; EC50 (Botrytis cinerea [10]): 5 ppm; inhibition (Botrytis cinerea [12]): inactive
Clc1cc(Cl)cc(Nc2nccs2)c1 | 26 | <25 | 
